Bridges are numbered along the chain shown (N, C = ends). Where no end group is shown, it is not given here.
Legend:
[1] = tested on: murine, infection induced, severe, steroid-insensitive, neutrophilic, allergic airways disease model of asthma; experiment: Differential leucocyte counts in BALF, Ovalbumin/C. muridarum steroid-insensitive asthma model; assay type: in vivo, BALB/c mice; conditions: Ova sensitized, C. muridarum infected mice, hBD-2 IN 5 mg/kg day 30, 32, 34
Protocol: (§1) Female 6-8 weeks old BALB/c mice were intraperitoneally (IP) sensitized to ovalbumin 50 μg with the adjuvant alum 1 mg in 200 μL 0.9% saline. Mice were intranasally (IN) challenged with Ova on day 12-13 and day 33-34 (10 μg in 50 μL sterile saline).
Airway inflammation: Differential leucocyte counts were obtained from May-Grunwald Giemsa stained BALF cells, using a light microscope.

[2] = tested on: murine, infection induced, severe, steroid-insensitive, neutrophilic, allergic airways disease model of asthma; experiment: Airway hyper-responsiveness (Flexivent), Ovalbumin/C. muridarum steroid-insensitive asthma model; assay type: in vivo, BALB/c mice; conditions: Ova sensitized, C. muridarum infected mice; hBD-2 IN 5 mg/kg day 30, 32, 34; DEX IN 2 mg/kg day 32-34; vs Saline control
Protocol: as §1

[3] = tested on: murine house dust mite/Freunds complete adjuvant driven model of allergic asthma; experiment: Lung resistance and compliance after methacholine, HDM/Freunds adjuvant asthma model (Example 2); assay type: in vivo, BALB/c mice; conditions: vs HDM challenged vehicle
Protocol: Female 7-10 weeks old BALB/c mice were randomly allocated into 7 study groups one day prior to study start and subcutaneously (SC) sensitized to house dust mite (100 μg HDM in 200 μL saline plus Freunds complete adjuvant in 0.9% saline). Mice were then intranasally (IN) challenged with HDM on day 14 (HDM 25 μg in 50 μL of saline). […] The initial dose was administered 60 minutes prior to challenge, and the subsequent doses approximately 6 hours apart. Lung function: Starting 48 hours after HDM challenge, measurements of lung resistance and lung compliance were carried out after methacholine challenge (3.125 MCH1; 6.25 MCH2; 12.5 MCH3 and 25 mg/mL MCH4) by anaesthetized, cannulated mice using DSI's Buxco Finepoint RC system. Data are represented as airway resistance at […] and as dose responsive curves.

[4] = Pharmacokinetics after subcutaneous or intravenous administration; assay type: in vivo, NMRI female mice; conditions: female, NMRI, mouse, hBD-2 1 mg/kg subcutaneous or intravenous
Protocol: To investigate and compare the pharmacokinetic profile of hBD-2 fused to the C-terminal (molecular weight 71.336 Da) or N-terminal (molecular weight 71.666 Da) of human serum albumin following subcutaneous or intravenous administration of a molar equivalent to 1 mg/kg hBD-2 (molecular weight […]) to NMRI female mice.
The animals were dosed 10 ml/kg of stock concentration of 1.65 mg/ml according to the individual body weight (300 μL for a 30 gram mouse). First blood sample was taken using a submandibular sampling method and the second following Isoflurane anaesthesia and euthanasia.

[5] = tested on: murine house dust mite driven model of allergic asthma; experiment: Lung resistance and compliance, prophylactic treatment in HDM asthma model (Example 9); assay type: in vivo, BALB/c mice
Protocol: Female 7-10 weeks old BALB/c mice were randomly allocated into 5 study groups one day prior to study start and subcutaneously (SC) sensitized to house dust mite (100 μg HDM in 200 μL saline plus Freund's complete adjuvant in 0.9% saline). The mice were treated with hBD-2 orally and intranasally respectively at a dose of 1.2 mg/kg/day (0.4 mg/kg TID) starting on day 12 in the morning and continued TID at approximately 6 hours intervals. The last dose was administered on day 14 one hour prior to challenge. The total number of doses were 8 doses or a total of […] hBD-2. Mice were then intranasally (IN) challenged with HDM on day 14 (HDM 25 μg in 50 μL of saline).
Lung function: Starting 48 hours after HDM challenge, measurements of lung resistance and lung compliance were carried out after methacholine challenge (3.125 MCH1; 6.25 MCH2; 12.5 MCH3 and 25 mg/mL MCH4) by anaesthetized, cannulated mice using DSI's Buxco Finepoint RC system. Data are represented as airway resistance at 10 mg/kg methacholine and as dose responsive curves.

[6] = tested on: microbiota of the intestine; experiment: 16S microbiota analysis, interventional defensin treatment in diet-induced obese mice (Example 11); assay type: in vivo; conditions: intervention
From the text: The experiment elucidates the effect of hBD2 and HD5 on the microbiota in diet-induced obese mice. A run-in period of 13 weeks where mice were fed a very HFD (60% energy from fat) preceded the intervention. Only mice meeting the criteria of a minimum of 12 gram weight gain (approximately 50% of initial bodyweight) during the run-in period were included in the final analyses. […] They were exposed to all experimental tests, but excluded from the analyses.
Before the intervention all mice were MR scanned. Cages of mice were allocated to experimental groups based on their fat mass. All subsequent measures were paired with data from the same mouse before the intervention. A LFD (low fat diet) reference group was running in parallel. As controls for the intervention 2 additional groups were included: 1 very HFD and 1 LFD. Experimental mice stayed on the very HFD during the intervention. The mice were on the experimental diet for 10 weeks. They were co-housed throughout the experiment, 4 mice per cage, 3 cages per group. All tests ran over 3 days, 1 cage per group per day.
Microbial analyses were carried out to study the microbiota of the intestine. Longitudinal 16S characterization was conducted on 4 paired samples from 60 mice, 240 samples in total. Each mouse was sampled prior to diet change, 1 week post diet change, 4 weeks post diet change and at termination, thus ensuring a thorough characterization of the faecal microbiota as a result of defensin treatment.

[7] = prophylactic intranasal 0.4 mg/kg TID day 12 to day 14
[8] = prophylactic oral 0.4 mg/kg TID day 12 to day 14

Which “macrophages in BALF” value [1] does the source give for “GIGDPVTCLKSGAICHPVFCPRRYKQIGTCGLPGTKCCKKP (disulfide 8-37, 15-30, 20-38 (inferred)) [hBD-2, human beta defensin 2]” here?
The value was “did not change”.

And the “neutrophil count in BALF” value [1]?
The value was “complete normalization”.

And the “eosinophils in BALF” value ([1]; DEX IN 2 mg/kg day 32-34)?
The value was “did not change”.

What about the “AHR (airway hyper-responsiveness)” value [2] of the same sequence?
Its value is “completely normalized”.

And the “decrease of pulmonary compliance” value ([3]; intranasal TID on day 14)?
The value was “effectively inhibited”.

And the “increase of airway resistance” value ([3]; intranasal TID on day 14)?
The value was “effectively inhibited”.

What about the “decrease of pulmonary compliance” value ([3]; oral 0.4 mg/kg TID on day 14) of the same sequence?
The value was “effectively inhibited”.

And the “increase of airway resistance / AHR” value ([3]; oral, hBD-2 0.4 mg/kg TID, dexamethasone 1 mg/kg BID, day 14)?
The value was “effectively inhibited”.

What about the half-life ([4]; blood) of the same sequence?
The half-life was 1 h.

And the CL renal ([4]; in vivo, read-out: renal clearance)?
The CL renal was 10 mL/min.

What about the “decrease of pulmonary compliance” value [5, 7] of the same sequence?
The value was “inhibiting”.

And the “increase of airway resistance” value [5, 7]?
Its value is “inhibiting”.

And the “decrease of pulmonary compliance” value [5, 8]?
The value was “inhibiting”.

What about the “increase of airway resistance” value [5, 8] of the same sequence?
Its value is “inhibiting”.

What about the “abundance of Alloprevotella in the colon” value ([6]; HD5 p<0.02) of the same sequence?
The value was “no influence”.

What about the “relative abundance of Bifidobacteriaceae in the small intestine” value ([6]; hBD2 p<0.0001) of the same sequence?
The value was “dramatically and statistically significant increased”.

And the “relative abundance of Bifidobacteriaceae in the colon” value ([6]; p<0.04)?
The value was “dramatically and statistically significant increased”.

From patent US11413328B2, “Methods for treating inflammatory conditions of the lungs” (priority 2016, dated 2022)
